{"source": "patent US7262204B2", "about": "“Modulation of CCR4 function” (Amgen Inc., priority 2000, dated 2007)", "data": [{"biological_target": "T1, CCR4 (Homo sapiens, UniProt P51679)", "T1 construct": "host or cells: CEM cells", "T1 sequence (P51679 1-360)": "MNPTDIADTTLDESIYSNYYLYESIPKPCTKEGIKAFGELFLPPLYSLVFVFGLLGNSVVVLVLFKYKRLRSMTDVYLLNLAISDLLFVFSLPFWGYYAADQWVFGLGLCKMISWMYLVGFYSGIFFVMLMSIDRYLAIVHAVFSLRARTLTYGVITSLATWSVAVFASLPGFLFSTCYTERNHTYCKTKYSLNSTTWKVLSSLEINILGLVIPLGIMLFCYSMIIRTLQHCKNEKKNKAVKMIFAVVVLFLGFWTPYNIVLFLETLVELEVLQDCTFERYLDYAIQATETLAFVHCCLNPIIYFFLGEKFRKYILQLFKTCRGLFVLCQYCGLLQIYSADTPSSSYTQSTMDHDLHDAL", "test": "CCR4 binding assay (inhibition of 125I-TARC binding to cells expressing CCR4)", "settings": "CCR4 antagonist activity", "from_the_text": "This example illustrates a CCR4 binding assay that can be used for evaluating the compounds of the present invention.\nDetection of Radiolabelled TARC and/or MDC Binding to CCR4\n^125I-labelled TARC and MDC are available from commercial sources (e.g., Amersham-Pharmacia or Perkin Elmer Life Sciences). All buffers and materials are available from commercial sources (e.g., Gibco BRL, Sigma). To measure binding of ^125I-TARC or ^125I-MDC to cells expressing CCR4 (e.g., CEM cells, available from the ATCC), the ^125I-TARC or ^125I-MDC is diluted to a concentration of approximately 200 pM in a buffered saline solution (e.g., RPMI supplemented with 0.5% bovine serum albumin), and added to an equal volume of a suspension of cells (e.g., CEM cells at 5×10^6 cells/mL). The resulting mixture is incubated for a period of time (e.g., 2 hours). The unbound ^125I-TARC or ^125I-MDC is separated from the cells by filtration, e.g., by passage through GF/B filter plate (Packard Biosciences) pre-treated with 0.3% polyethyleneimine (Sigma), using a Packard Filtermate 96 (Packard Biosciences). The amount of ^125I-TARC or ^125I-MDC retained with the cells on the filterplate is measured by adding a small amount of scintillation fluid (e.g., 50 μL of Microscint-20, obtained from Packard Biosciences), and reading scintillation on appropriate detection equipment, e.g., a Packard TopCount 383 (Packard Biosciences).\nNon-specific binding of ^125I-TARC or ^125I-MDC can be estimated by measuring the amount of ^125I-TARC or ^125I-MDC retained with the cells on the filterplate when the assay is performed in the presence of a large excess of unlabelled TARC or MDC.\nInhibition of ^125I-TARC or ^125I-MDC binding to CCR4 is defined as a decrease in the retention of ^125I-TARC or ^125I-MDC to the cells on the filterplate.\nThe assay described above varies only moderately from standardly used procedures, e.g., Imai et al. (1997) J. Biol. Chem. 272:15036-15042, Imai et al. (1998) J. Biol. Chem. 273:1764-1768.", "units": {"IC50": "nM"}, "values": [{"smiles": "CC(C)CN(Cc1csc(Nc2cccc3ccccc23)n1)CC(C)C", "note": "[Compound 15]", "IC50": "> 1000"}, {"smiles": "Clc1ccc2nc(Nc3cccc4ccccc34)sc2c1", "note": "[Compound 19]", "IC50": "< 1000"}, {"smiles": "CC(C)CN(CC(C)C)C(C)c1csc(Nc2cccc3ccccc23)n1", "note": "(stereo not shown) [Compound 18]", "IC50": "> 1000"}, {"smiles": "c1ccc(CN2CCc3sc(Nc4cccc5ccccc45)nc3C2)cc1", "note": "[Compound 20]", "IC50": "> 1000"}]}]}
